In the experiment the test system is Pythium. Nature of the experiment: Cucumber field trial, Pythium-infected seeds, seed treatment, control or Pythium-inoculated soil (Example 3). Details: Density: unit not given here. In kind it is in vivo. The text has this: The seeds were planted in a field, either in soil that had been inoculated with Pythium (Soil Inoc. with Pythium), or in soil that had not been inoculated with Pythium (Ctrl.), then allowed to grow. Concentrations and compositions of triadimenol, metalaxyl, and saponin are the same as given in Example 1. For cucumber, the industry standard dosage of metalaxyl is 15.5 grams of active ingredient per 100 kilograms of seed (15.5 GA/100 Kg). […] The data of TABLE 3 are shown graphically in FIG. 3. The relative densities for the data of TABLE 3 and FIG. 3 were calculated with reference to the 31 GA/100 Kg metalaxyl category. As shown by TABLE 3 and FIG. 3, inoculation of the soil with Pythium was correlated with a general decrease in cucumber seedling count, density, and relative density (compare Ctrl. versus Inoc.).

Where [1] appears, read: Metalaxyl 15.5 GA/100 Kg, 18 DAA, Ctrl. soil.
Where [2] appears, read: Metalaxyl 15.5 GA/100 Kg, 18 DAA, Soil Inoc. with Pythium.
[3] abbreviates: Metalaxyl 15.5 GA/100 Kg, 33 DAA, Ctrl. soil.
The mark [4] stands for this setting: Metalaxyl 31 GA/100 Kg, 18 DAA, Ctrl. soil.
Setting [5] is: Metalaxyl 31 GA/100 Kg, 18 DAA, Soil Inoc. with Pythium.
Setting [6] is: Metalaxyl 31 GA/100 Kg, 33 DAA, Ctrl. soil.
The mark [7] stands for this setting: Metalaxyl 31 GA/100 Kg, 33 DAA, Soil Inoc. with Pythium.

SMILES strings stand for the structures.

With `COCC(=O)N(c1c(C)cccc1C)C(C)C(=O)OC` (stereo not drawn) [Metalaxyl], the Count by setting is: under setting [1], 42.5; under setting [2], 26; under setting [3], 41.8; under setting [4], 35; under setting [5], 29; under setting [6], 34. Further, the Count under setting [7] is given as 8.3. The Density is reported as 85 under setting [1]; 52 under setting [2]; 83.5 under setting [3]; 70 under setting [4]; 58 under setting [5]; 68 under setting [6]. Moreover, under setting [7], the Density came out at 16.5. Further, the “Relative Density” value under setting [1] is reported as 121.4; the “Relative Density” value under setting [2] stood at 89.7; the “Relative Density” value under setting [3] was determined as 122.8; the “Relative Density” value (Metalaxyl 31 GA/100 Kg (reference), 18 DAA, Ctrl. soil) was determined as 100; the “Relative Density” value (Metalaxyl 31 GA/100 Kg (reference), 18 DAA, Soil Inoc. with Pythium) came out at 100; the “Relative Density” value (Metalaxyl 31 GA/100 Kg (reference), 33 DAA, Ctrl. soil) is 100. The “Relative Density” value under setting [7] is on record as 31.4.

(Values after US20120077673A1, “Fungicidal Compositions and Methods of Use” (priority 2010, published 2012).)
